Data as given in article PMC5216056 (Nature Communications, 2017).
“And” between values parts separate entries of the source, which are not always exact repeats. Equal entries are not always repeated. “Also recorded” adds a separate entry of the source.

Assays:
D1 (h) = molecular target: T1, D1 (h) (Homo sapiens, UniProt P21728); test: CEREP panel; type: binding; settings: 10 µM
T1 construct: CEREP (contract assay)

human P-gp = human P-gp (Homo sapiens, UniProt P08183); settings: efflux ratio
FP (h) = molecular target: T2, FP (h) (Homo sapiens, UniProt P43088); test: CEREP panel; type: binding; settings: 10 µM
T2 construct: CEREP (contract assay)
T2 sequence (P43088 whole entry): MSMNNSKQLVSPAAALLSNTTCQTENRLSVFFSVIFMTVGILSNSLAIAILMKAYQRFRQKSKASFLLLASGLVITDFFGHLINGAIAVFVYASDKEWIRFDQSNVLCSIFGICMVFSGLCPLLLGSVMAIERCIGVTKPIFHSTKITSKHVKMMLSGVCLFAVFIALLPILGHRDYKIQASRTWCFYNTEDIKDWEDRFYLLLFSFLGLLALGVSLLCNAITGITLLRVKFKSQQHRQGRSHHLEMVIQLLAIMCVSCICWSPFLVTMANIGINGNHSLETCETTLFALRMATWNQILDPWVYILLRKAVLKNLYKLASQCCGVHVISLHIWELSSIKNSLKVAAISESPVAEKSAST

P2X = test: CEREP panel; type: binding; settings: 10 µM
A2A (h) = molecular target: T3, A2A (h) (Homo sapiens, UniProt P29274); test: CEREP panel; type: binding; settings: 10 µM
T3 construct: CEREP
T3 sequence (P29274 whole entry): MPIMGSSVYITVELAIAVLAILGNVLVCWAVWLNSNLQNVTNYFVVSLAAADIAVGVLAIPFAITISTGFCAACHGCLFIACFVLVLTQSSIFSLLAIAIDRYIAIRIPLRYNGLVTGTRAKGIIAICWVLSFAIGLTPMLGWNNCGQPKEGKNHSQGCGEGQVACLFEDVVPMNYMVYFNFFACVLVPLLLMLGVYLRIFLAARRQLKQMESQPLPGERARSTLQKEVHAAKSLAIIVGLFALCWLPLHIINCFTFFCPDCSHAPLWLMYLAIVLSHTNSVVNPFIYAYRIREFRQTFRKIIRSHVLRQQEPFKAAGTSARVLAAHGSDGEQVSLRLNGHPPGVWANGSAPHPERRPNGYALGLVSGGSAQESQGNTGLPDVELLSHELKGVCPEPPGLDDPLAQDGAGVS

C57BL6/J mice [1] = test: Triad assay: hypothermia; type: in vivo, mouse; settings: for hypothermia, cannabimimetic effect: 1-100 mg kg^−1 i.p., cumulative, mice
mCB2R = mCB2R (Mus musculus, UniProt P47936); test: Operational analysis of biased signalling; settings: for ΔLogR GTPγS / ΔLogR cAMP / ΔLogR β-AR: reference CP55940; for RE GTPγS / RE cAMP / RE β-AR: relative effectiveness
Sequence of mCB2R (P47936 whole entry): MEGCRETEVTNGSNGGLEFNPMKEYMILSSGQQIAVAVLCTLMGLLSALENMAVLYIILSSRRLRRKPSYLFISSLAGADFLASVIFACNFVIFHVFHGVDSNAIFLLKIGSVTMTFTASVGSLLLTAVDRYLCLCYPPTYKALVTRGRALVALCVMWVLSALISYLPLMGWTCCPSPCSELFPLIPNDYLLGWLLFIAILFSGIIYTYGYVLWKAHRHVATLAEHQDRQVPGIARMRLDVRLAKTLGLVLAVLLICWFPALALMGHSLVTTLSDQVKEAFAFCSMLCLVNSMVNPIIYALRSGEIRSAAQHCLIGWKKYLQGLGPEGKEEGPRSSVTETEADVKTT

P2Y = test: CEREP panel; type: binding; settings: 10 µM
C57BL6/J mice [2] = test: Triad assay: catalepsy; type: in vivo, mouse; settings: for catalepsy, cannabimimetic effect: 1-100 mg kg^−1 i.p., cumulative, mice
NK2 (h) = molecular target: T4, NK2 (h) (Homo sapiens, UniProt P21452); test: CEREP panel; type: binding; settings: 10 µM
T4 construct: CEREP (contract assay)
T4 sequence (P21452 1-398): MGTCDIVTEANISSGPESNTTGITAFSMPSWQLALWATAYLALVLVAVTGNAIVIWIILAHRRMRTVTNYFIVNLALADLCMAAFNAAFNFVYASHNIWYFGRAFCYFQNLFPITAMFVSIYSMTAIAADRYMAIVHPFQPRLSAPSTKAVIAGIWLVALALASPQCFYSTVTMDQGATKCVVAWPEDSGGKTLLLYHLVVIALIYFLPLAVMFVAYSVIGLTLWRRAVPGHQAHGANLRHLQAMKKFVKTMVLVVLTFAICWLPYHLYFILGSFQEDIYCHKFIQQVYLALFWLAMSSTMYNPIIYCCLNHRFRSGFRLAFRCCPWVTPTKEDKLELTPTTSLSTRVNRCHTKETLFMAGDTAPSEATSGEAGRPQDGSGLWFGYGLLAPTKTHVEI

BZD (peripheral) = molecular target: T5, BZD (peripheral) (Rattus norvegicus, UniProt P16257); test: CEREP panel; type: binding; settings: 10 µM
T5 construct: CEREP
T5 sequence (P16257 whole entry): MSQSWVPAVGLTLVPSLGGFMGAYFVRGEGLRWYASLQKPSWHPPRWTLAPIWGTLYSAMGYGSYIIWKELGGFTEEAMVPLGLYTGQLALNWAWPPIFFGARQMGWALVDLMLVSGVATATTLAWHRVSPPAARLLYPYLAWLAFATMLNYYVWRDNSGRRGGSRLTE

NTS1 (NT1) (h) = molecular target: T6, NTS1 (NT1) (h) (Homo sapiens, UniProt P30989); test: CEREP panel; type: binding; settings: 10 µM
T6 construct: CEREP (contract assay)
T6 sequence (P30989 whole entry): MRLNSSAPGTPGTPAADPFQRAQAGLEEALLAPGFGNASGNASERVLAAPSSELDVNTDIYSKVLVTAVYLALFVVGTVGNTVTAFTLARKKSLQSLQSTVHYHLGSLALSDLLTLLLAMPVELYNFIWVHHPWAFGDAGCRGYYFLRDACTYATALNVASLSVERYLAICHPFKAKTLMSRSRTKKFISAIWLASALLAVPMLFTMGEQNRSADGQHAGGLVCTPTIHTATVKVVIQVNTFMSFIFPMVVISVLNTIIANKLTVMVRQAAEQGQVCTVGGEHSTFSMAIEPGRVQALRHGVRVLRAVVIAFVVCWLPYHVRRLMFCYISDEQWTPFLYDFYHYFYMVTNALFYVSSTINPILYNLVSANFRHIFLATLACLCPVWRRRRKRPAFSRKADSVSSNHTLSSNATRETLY

PAC1 (PACAP) (h) = molecular target: T7, PAC1 (PACAP) (h) (Homo sapiens, UniProt P41586); test: CEREP panel; type: binding; settings: 10 µM
T7 construct: CEREP (contract assay)
T7 sequence (P41586 21-468): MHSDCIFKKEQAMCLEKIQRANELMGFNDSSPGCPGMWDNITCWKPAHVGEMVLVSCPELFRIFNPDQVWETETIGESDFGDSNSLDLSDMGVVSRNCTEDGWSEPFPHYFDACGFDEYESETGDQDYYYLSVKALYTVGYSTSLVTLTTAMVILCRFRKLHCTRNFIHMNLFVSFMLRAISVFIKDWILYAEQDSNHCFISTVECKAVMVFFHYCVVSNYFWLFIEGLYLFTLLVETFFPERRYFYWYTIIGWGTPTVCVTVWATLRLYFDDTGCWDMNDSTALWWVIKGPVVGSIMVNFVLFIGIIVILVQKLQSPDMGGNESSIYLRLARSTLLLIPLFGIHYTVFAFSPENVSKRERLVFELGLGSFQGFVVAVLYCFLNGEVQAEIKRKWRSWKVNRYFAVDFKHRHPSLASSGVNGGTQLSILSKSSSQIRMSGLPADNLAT

CB1 (h) = molecular target: T8, CB1 (h) (Homo sapiens, UniProt P21554); test: biochemical; type: binding; settings: 10 µM
T8 construct: CEREP (contract assay)
T8 sequence (P21554 whole entry): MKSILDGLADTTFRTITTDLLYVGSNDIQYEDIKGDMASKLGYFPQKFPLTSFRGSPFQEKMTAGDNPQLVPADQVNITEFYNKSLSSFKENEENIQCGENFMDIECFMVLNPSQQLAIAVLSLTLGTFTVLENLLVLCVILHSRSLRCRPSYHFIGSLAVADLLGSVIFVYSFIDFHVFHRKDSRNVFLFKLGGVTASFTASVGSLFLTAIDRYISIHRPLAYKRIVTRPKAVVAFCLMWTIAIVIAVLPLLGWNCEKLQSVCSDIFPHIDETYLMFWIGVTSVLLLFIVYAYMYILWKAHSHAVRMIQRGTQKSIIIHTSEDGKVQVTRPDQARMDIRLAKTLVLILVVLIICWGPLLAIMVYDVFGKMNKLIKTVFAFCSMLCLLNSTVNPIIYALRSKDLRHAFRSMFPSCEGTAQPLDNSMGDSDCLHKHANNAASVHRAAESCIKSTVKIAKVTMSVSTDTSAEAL

AT2 (h) = molecular target: T9, AT2 (h) (Homo sapiens, UniProt P50052); test: CEREP panel; type: binding; settings: 10 µM
T9 construct: CEREP
T9 sequence (P50052 1-363): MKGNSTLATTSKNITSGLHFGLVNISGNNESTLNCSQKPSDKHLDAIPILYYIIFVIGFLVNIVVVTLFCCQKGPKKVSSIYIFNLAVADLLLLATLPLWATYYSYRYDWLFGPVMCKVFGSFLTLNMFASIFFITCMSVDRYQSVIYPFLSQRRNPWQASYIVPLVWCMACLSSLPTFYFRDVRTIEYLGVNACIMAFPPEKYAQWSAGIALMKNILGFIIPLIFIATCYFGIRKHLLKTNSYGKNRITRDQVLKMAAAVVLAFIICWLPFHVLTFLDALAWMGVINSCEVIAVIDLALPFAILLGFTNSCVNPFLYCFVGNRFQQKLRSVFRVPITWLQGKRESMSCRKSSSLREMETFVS

PDGF = test: CEREP panel; type: binding; settings: 10 µM
MC4 (h) = molecular target: T10, MC4 (h) (Homo sapiens, UniProt P32245); test: CEREP panel; type: binding; settings: 10 µM
T10 construct: CEREP (contract assay)
T10 sequence (P32245 whole entry): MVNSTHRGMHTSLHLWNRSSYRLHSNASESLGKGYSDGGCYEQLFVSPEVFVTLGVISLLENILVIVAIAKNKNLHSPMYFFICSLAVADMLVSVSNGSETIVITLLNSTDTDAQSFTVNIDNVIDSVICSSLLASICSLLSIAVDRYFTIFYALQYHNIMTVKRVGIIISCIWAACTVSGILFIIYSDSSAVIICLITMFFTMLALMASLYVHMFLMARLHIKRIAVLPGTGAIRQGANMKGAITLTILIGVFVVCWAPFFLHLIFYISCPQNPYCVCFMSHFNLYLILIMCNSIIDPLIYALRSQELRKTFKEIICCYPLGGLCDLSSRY

MT1 (ML1A) (h) = molecular target: T11, MT1 (ML1A) (h) (Homo sapiens, UniProt P48039); test: CEREP panel; type: binding; settings: 10 µM
T11 construct: CEREP (contract assay)
T11 sequence (P48039 whole entry): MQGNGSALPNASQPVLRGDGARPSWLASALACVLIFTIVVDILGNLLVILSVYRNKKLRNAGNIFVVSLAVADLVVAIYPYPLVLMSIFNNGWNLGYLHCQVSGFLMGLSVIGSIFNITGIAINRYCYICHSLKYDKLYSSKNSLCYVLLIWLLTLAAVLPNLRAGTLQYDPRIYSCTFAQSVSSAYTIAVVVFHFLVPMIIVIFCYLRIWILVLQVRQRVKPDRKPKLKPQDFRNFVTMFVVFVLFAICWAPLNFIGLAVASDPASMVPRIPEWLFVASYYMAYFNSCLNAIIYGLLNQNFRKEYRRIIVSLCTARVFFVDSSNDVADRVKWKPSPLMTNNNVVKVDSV

beta 2 (h) = molecular target: T12, beta 2 (h) (Homo sapiens, UniProt P07550); test: CEREP panel; type: binding; settings: 10 µM
T12 construct: CEREP
T12 sequence (P07550 whole entry): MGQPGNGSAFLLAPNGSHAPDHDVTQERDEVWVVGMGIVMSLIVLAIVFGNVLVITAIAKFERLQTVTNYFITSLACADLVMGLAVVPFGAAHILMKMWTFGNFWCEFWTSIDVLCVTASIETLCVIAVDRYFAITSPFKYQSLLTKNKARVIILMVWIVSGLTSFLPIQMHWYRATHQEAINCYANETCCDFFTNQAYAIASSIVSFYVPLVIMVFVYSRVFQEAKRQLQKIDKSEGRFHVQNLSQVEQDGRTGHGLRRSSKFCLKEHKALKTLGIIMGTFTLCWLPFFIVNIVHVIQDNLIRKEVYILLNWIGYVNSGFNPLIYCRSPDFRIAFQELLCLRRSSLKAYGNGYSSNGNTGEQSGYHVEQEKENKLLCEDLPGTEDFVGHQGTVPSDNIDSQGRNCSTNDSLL

5-HT2A (h) = molecular target: T13, 5-HT2A (h) (Homo sapiens, UniProt P28223); test: CEREP panel; type: binding; settings: 10 µM
T13 construct: CEREP (contract assay)

physchem = settings: pH 6.5, aqueous buffer, thermodynamic from solid
in vitro [3] = settings: both, human, microsomes, pH 7.4
in vitro [4] = settings: male, C57BL/6J, mouse, microsomes, pH 7.4
in vitro [5] = settings: C57BL6, mouse, hepatocytes
sst4 (h) = molecular target: T14, sst4 (h) (Homo sapiens, UniProt P31391); test: CEREP panel; type: binding; settings: 10 µM
T14 construct: CEREP (contract assay)
T14 sequence (P31391 whole entry): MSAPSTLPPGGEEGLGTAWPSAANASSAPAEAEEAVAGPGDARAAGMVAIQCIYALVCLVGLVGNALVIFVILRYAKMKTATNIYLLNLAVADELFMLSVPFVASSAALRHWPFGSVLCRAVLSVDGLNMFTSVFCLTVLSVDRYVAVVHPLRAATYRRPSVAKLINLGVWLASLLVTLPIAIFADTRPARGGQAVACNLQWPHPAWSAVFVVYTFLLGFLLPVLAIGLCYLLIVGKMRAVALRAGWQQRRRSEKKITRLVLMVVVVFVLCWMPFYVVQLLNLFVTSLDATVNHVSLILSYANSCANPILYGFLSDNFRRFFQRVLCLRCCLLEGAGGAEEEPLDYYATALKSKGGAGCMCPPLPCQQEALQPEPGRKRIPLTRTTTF

[6] = pretreatment (SR141716A 3 mg kg^−1, HU910 30 mg kg^−1) before HU210 1.7 mg kg^−1

Sequence of human P-gp (P08183 whole entry): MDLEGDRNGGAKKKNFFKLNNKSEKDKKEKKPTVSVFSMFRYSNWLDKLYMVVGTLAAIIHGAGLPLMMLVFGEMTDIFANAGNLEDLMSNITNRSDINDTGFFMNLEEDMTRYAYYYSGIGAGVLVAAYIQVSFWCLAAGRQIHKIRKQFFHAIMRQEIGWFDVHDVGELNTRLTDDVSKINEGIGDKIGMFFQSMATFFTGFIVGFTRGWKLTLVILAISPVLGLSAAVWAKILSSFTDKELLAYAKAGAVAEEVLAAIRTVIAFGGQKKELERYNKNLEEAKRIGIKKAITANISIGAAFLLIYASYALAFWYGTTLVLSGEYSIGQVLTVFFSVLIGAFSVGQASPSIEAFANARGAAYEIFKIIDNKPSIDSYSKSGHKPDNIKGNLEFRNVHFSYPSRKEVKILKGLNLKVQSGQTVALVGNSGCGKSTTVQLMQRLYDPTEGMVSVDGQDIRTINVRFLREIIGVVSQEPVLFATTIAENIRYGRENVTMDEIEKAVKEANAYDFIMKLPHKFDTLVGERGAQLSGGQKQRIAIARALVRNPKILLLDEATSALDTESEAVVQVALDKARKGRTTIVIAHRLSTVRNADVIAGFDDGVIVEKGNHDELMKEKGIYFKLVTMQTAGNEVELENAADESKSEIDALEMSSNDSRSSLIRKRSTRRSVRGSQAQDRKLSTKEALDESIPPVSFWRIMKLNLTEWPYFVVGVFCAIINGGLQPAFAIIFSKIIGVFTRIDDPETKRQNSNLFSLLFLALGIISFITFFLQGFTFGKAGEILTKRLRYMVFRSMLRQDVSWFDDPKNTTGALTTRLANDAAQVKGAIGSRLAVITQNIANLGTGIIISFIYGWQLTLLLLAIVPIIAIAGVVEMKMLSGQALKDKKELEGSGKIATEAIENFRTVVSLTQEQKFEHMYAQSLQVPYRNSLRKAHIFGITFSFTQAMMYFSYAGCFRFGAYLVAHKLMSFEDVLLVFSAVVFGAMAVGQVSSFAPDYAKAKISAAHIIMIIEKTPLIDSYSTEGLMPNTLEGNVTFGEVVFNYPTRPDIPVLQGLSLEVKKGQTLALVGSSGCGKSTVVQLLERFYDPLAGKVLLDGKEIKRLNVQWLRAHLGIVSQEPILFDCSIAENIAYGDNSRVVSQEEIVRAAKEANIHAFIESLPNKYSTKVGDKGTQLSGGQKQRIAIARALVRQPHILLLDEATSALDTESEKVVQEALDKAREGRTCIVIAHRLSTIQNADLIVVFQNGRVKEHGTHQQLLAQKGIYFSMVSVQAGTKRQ

SMILES: Cc1ccc2c(c1)Cc1c(C(=O)NN3CCCCC3)nn(-c3ccc(Cl)cc3Cl)c1-2 [Gp-1a]
- % inhibition D1 (h) (D1 (h)): 63%
- P-gp (ER) human (human P-gp): 1.0
- % inhibition FP (h) (FP (h)): 88%

SMILES: CCCCCCC(C)(C)c1cc(OC)c(C2=C[C@H]3CC[C@]2(CO)C3(C)C)c(OC)c1 [HU910]
- % inhibition P2X (P2X): -10%
- % inhibition A2A (h) (A2A (h)): 50%
- Plasma protein binding mouse: 4.1 %free
- hypothermia, cannabimimetic effect (C57BL6/J mice [1]): did not produce detectable; also recorded: lacked appreciable pharmacological effects
- antagonism of HU210-induced hypothermia (C57BL6/J mice [1]; [6]): did not significantly reduce
- GTPγS-cAMP bias factor (BF) (mCB2R): 23.6
- GTPγS-cAMP ΔΔlogR (mCB2R): 1.37 ± 0.24
- LogR GTPγS (mCB2R): 7.15 ± 0.07
- LogR cAMP (mCB2R): 8.48 ± 0.18
- LogR β-AR (mCB2R): 6.57 ± 0.11
- β-AR-GTPγS bias factor (BF) (mCB2R): 0.18
- β-AR-GTPγS ΔΔlogR (mCB2R): -0.75 ± 0.15
- β-AR-cAMP bias factor (BF) (mCB2R): 4.2
- β-AR-cAMP ΔΔlogR (mCB2R): 0.63 ± 0.26
- ΔLogR GTPγS (mCB2R): -0.67 ± 0.08
- ΔLogR cAMP (mCB2R): -2.04 ± 0.23
- ΔLogR β-AR (mCB2R): -1.41 ± 0.12
- RE GTPγS (mCB2R): 0.22
- RE cAMP (mCB2R): 0.009
- RE β-AR (mCB2R): 0.04
- % inhibition P2Y (P2Y): -7%
- catalepsy, cannabimimetic effect (C57BL6/J mice [2]): did not produce detectable; also recorded: lacked appreciable pharmacological effects
- antagonism of HU210-induced catalepsy (C57BL6/J mice [2]; [6]): did not significantly reduce
- % inhibition NK2 (h) (NK2 (h)): 31%
- % inhibition BZD (peripheral) (BZD (peripheral)): -11%
- % inhibition NTS1 (NT1) (h) (NTS1 (NT1) (h)): -19%
- P-gp (ER) human (human P-gp): 2.2
- % inhibition PAC1 (PACAP) (h) (PAC1 (PACAP) (h)): 0%
- % inhibition CB1 (h) (CB1 (h)): 71%
- % inhibition AT2 (h) (AT2 (h)): 13%
- % inhibition PDGF (PDGF): 10%
- % inhibition MC4 (h) (MC4 (h)): 13%
- % inhibition MT1 (ML1A) (h) (MT1 (ML1A) (h)): 52%
- % inhibition beta 2 (h) (beta 2 (h)): -5%

SMILES: CCCn1c(C)c(C(=O)c2cccc3ccccc23)c2ccccc21 [JWH015]
- % inhibition 5-HT2A (h) (5-HT2A (h)): 56%

SMILES: CCCC(C)(C)c1ccc2c(c1)OC(C)(C)[C@@H]1CC=C(C)C[C@@H]21 [JWH133]
- % inhibition P2X (P2X): -5%
- % inhibition A2A (h) (A2A (h)): 4%
- hypothermia, cannabimimetic effect (C57BL6/J mice [1]): did not produce detectable; also recorded: lacked appreciable pharmacological effects
- GTPγS-cAMP bias factor (BF) (mCB2R): 50.9
- GTPγS-cAMP ΔΔlogR (mCB2R): 1.71 ± 0.18
- LogR GTPγS (mCB2R): 7.07 ± 0.05
- LogR cAMP (mCB2R): 8.07 ± 0.09
- LogR β-AR (mCB2R): 6.57 ± 0.12
- β-AR-GTPγS bias factor (BF) (mCB2R): 0.21
- β-AR-GTPγS ΔΔlogR (mCB2R): -0.67 ± 0.15
- β-AR-cAMP bias factor (BF) (mCB2R): 10.9
- β-AR-cAMP ΔΔlogR (mCB2R): 1.04 ± 0.21
- ΔLogR GTPγS (mCB2R): -0.75 ± 0.07
- ΔLogR cAMP (mCB2R): -2.45 ± 0.17
- ΔLogR β-AR (mCB2R): -1.42 ± 0.13
- RE GTPγS (mCB2R): 0.18
- RE cAMP (mCB2R): 0.004
- RE β-AR (mCB2R): 0.04
- % inhibition P2Y (P2Y): 3%
- catalepsy, cannabimimetic effect (C57BL6/J mice [2]): did not produce detectable; also recorded: lacked appreciable pharmacological effects
- % inhibition NK2 (h) (NK2 (h)): 36%
- % inhibition BZD (peripheral) (BZD (peripheral)): -1%
- % inhibition NTS1 (NT1) (h) (NTS1 (NT1) (h)): 0%
- % inhibition PAC1 (PACAP) (h) (PAC1 (PACAP) (h)): 12%
- % inhibition CB1 (h) (CB1 (h)): 6
- % inhibition AT2 (h) (AT2 (h)): 0%
- % inhibition PDGF (PDGF): -12%
- % inhibition MC4 (h) (MC4 (h)): -10%
- % inhibition MT1 (ML1A) (h) (MT1 (ML1A) (h)): -4%
- % inhibition beta 2 (h) (beta 2 (h)): -15%

SMILES: Cc1c(C(=O)NN2CCCCC2)nn(-c2ccc(Cl)cc2Cl)c1-c1ccc(Cl)cc1 [SR141716A]
- antagonism of HU210-induced hypothermia (C57BL6/J mice [1]; mouse, in vivo): attenuated; also recorded: significantly antagonized
- antagonism of HU210-induced catalepsy (C57BL6/J mice [2]; mouse, in vivo): attenuated; also recorded: significantly antagonized
- solubility kinetic (physchem): < 0.733 µg/mL and < 1.6 µM
- microsomal CLint (in vitro [3]): 20 µL/min/mg
- microsomal CLint (in vitro [4]): 109 µL/min/mg
- inhibition at 10 µM (MT1 (ML1A) (h); read-out: % inhibition MT1 (ML1A) (h)): 62%
- hepatocyte CLint (in vitro [5]): 65 µL/min/1e6 cells

SMILES: Cc1c(C(=O)c2cccc3ccccc23)c2cccc3c2n1[C@H](CN1CCOCC1)CO3 [WIN55212-2]
- Plasma protein binding mouse: 1.0 %free
- % inhibition sst4 (h) (sst4 (h)): 64%
- % inhibition FP (h) (FP (h)): 81%
